Measured values as given in ChEMBL document CHEMBL1153681 (Bioorg Med Chem Lett, 1992).

Tests used:
[1] = species: Cavia porcellus; experiment: Evaluated for its ability to inhibit electrically induced contractions in the guinea pig ileum (GPI); format: functional, organism-based
[2] = species: Mus musculus; experiment: Evaluated for its ability to inhibit electrically induced contractions in the mouse vas deferens (MVD); format: functional, organism-based
[3] = molecular target: Delta-type opioid receptor (Rattus norvegicus, UniProt P33533); experiment: Evaluated for its affinity towards Opioid receptor delta 1 in rat fore brain by displacing the radioligand [3H]DPDPE.
Sequence of Delta-type opioid receptor (P33533 whole entry): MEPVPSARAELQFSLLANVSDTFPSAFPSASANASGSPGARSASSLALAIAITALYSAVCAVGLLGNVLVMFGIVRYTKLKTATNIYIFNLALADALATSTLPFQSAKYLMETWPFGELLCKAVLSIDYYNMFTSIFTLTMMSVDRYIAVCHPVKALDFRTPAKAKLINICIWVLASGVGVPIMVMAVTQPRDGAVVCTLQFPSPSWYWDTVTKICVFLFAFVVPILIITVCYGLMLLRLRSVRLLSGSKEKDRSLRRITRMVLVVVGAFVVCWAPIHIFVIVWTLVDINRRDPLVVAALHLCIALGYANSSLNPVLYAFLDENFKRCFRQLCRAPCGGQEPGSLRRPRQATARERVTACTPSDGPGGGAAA

[4] = molecular target: Mu-type opioid receptor (Rattus norvegicus, UniProt P33535)
Sequence of Mu-type opioid receptor (P33535 whole entry): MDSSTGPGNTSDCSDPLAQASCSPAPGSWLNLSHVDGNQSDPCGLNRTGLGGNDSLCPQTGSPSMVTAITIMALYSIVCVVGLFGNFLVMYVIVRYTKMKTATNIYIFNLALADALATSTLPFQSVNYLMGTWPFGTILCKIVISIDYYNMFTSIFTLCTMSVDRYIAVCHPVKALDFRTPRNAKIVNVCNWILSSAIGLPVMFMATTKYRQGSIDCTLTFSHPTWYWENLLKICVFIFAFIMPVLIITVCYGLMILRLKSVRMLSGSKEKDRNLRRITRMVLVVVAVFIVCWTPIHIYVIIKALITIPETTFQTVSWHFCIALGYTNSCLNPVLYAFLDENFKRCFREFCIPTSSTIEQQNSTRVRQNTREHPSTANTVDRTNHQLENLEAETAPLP
Description: Evaluated for its affinity towards Opioid receptor mu 1 in rat forebrain by displacing the radioligand [3H]sufentanil.

[5] = Ratio of the ability to inhibit electrically induced contractions in the mouse vas deferens (MVD) to that of the guinea pig ileum (GPI); format: functional

SMILES | IC50 [1] [nM] | IC50 [2] [nM] | IC50 [3] [nM] | IC50 [4] [nM] | Ratio [5]
C[C@H](NC(=O)[C@@H](N)Cc1ccc(O)cc1)C(=O)N[C@H]1Cc2ccccc2CN(CC(=O)N[C@@H](Cc2ccc(O)cc2)C(=O)N2CCC[C@H]2C(=O)N[C@@H](CO)C(N)=O)C1=O | 10.8 | 0.66 | 17.4 | 11 | 0.06
CC(C)[C@H](NC(=O)[C@H](CC(=O)O)NC(=O)[C@H](Cc1ccccc1)NC(=O)[C@@H](C)NC(=O)[C@@H](N)Cc1ccc(O)cc1)C(=O)N[C@H](C(=O)NCC(N)=O)C(C)C [DELTORPHIN C] | ≥ 3000 | 0.32 | – | – | <=0.0001
C[C@@H](NC(=O)[C@@H](N)Cc1ccc(O)cc1)C(=O)N[C@@H](Cc1ccccc1)C(=O)NCC(=O)N[C@@H](Cc1ccc(O)cc1)C(=O)N1CCC[C@H]1C(=O)N[C@@H](CO)C(N)=O [DERMORPHIN] | 1.06 | – | – | 2.4 | –
